# Reference: patent US12466831B2, “Substituted amino triazolopyrimidine and amino triazolopyrazine adenosine receptor antagonists, pharmaceutical compositions and their use” (Merck Sharp & Dohme LLC, priority 2018, dated 2025)
# How the values were obtained:
# [1] = molecular target: T1, human A2a adenosine receptor (Homo sapiens, UniProt P29274); assay: A2a binding affinity using radioligand binding, Method (A); conditions: Method (A): [3H]SCH58261 filtration binding, membranes expressing human A2a
# T1 construct: purchased Perkin Elmer RBHA2aM400UA; host or cells: HEK293 or CHO cells (recombinant expression)
# Procedure, shortened: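 Filtration binding used human A2a membranes from HEK293 or CHO cells, preincubated with compound 15–30 min. [3H]SCH58261 (diluted to 4 nM) was then added in Tris pH 7.4, MgCl2, Tween20 buffer, with 60 min at room temperature. Non-specific binding was defined by 1 μM ZM241385, and IC50 came from a 4-parameter logistic fit.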
# [2] = molecular target: T2, human A2b adenosine receptor (Homo sapiens, UniProt P29275); assay: A2b binding affinity, radioligand filtration binding assay; conditions: tritiated proprietary A2b antagonist, HEK293 membranes expressing human A2b
# T2 construct: purchased Perkin Elmer ES-013-C; host or cells: HEK293 cells recombinantly expressing the receptor; membranes made from them
# T2 sequence (P29275 1-332): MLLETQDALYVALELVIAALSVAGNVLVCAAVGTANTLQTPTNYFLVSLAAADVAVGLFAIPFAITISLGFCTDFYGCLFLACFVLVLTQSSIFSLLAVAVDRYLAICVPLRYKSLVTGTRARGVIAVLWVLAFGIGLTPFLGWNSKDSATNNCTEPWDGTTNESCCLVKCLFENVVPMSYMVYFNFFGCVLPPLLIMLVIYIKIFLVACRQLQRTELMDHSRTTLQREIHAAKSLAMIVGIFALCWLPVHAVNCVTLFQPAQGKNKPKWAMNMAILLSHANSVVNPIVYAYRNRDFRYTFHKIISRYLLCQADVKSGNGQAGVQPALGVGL
# Procedure, shortened: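 Membranes from HEK293 cells expressing human A2b were preincubated with compound 15–30 min at room temperature, then incubated 60 min at room temperature with a tritiated proprietary A2b antagonist in PBS pH 7.4 without Mg/Ca. Non-specific binding defined with 20 μM NECA; filter-bound radioactivity counted and IC50 fitted by 4-parameter logistic.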
# [3] = molecular target: T1, human A2a adenosine receptor; assay: A2a binding affinity using SPA, Method (B); conditions: Method (B): [3H]SCH58261 SPA, membranes expressing human A2a
# Text: Method (A) describes the procedure used to measure A2a binding affinity using radioligand binding. Method (B) describes the procedure used to measure A2a binding affinity using SPA technology. The method used to measure A2b binding affinity is also described below. The method used to determine the A2a IC50 value reported for each compound in the table is indicated next to the reported value. The A2b IC50 value measured using the A2b binding affinity assay is shown in the table next to the compound under the corresponding A2a value.
# The A2a receptor affinity binding assay measured the amount of binding of a tritiated ligand with high affinity for the A2a adenosine receptor to membranes made from HEK293 or CHO cells recombinantly expressing the human A2a adenosine receptor, in the presence of varying concentrations of a compound of the invention. The data were generated using either filtration binding or a homogenous scintillation proximity assay (SPA).
# Method (B): Measurement of A2a Binding Affinity Using SPA
# Binding affinity using SPA was conducted as follows. Test compounds (50 nL) were dispensed into individual wells of a 384-well OptiPlate™ well (Perkin Elmer) by Echo® acoustic liquid transfer (Labcyte). 20 μL of 1.25 nM [^3H] SCH58261 ((7-(2-phenylethyl)-5-amino-2-(2-furyl)-pyrazolo-[4,3-e]-1,2,4-triazolo[1,5-c]pyrimidine)) in DPBS assay buffer (Dulbecco's phosphate buffered saline without calcium and magnesium, ThermoFisher Scientific, Cat. No. A1285601) supplemented with 10 mM MgCl2 was added. A2a receptor-expressing membranes were incubated with 20 μg/mL adenosine deaminase (Roche, Cat. No. 10 102 105 001) for 15 minutes at room temperature. The receptor-expressing membranes were then combined with wheat germ agglutinin-coated yttrium silicate SPA beads (GE Healthcare, Cat. No. RPNQ0023) in a ratio of […] (w/w) and incubated for 30 minutes at room temperature. 30 μL of the membrane/bead mixture (0.25 μg and 25 μg per well respectively) were added to the 384-well OptiPlate™ well. To define total and non-specific binding, wells containing 1% DMSO or 1 μM CGS15943 (Tocris Bioscience, Cat. No. 1699) respectively were also included in the experiment. The plate was incubated for one hour at room temperature with agitation. The assay plate was then incubated for an hour to allow the beads to settle before data were collected using a TopCount® (Perkin Elmer) scintillation counter. After normalization to total and non-specific binding, the percent effect at each compound concentration was calculated. The plot of percent effect versus the log of compound concentration was analyzed electronically using a 4-parameter logistic fit based on the Levenberg-Marquardt algorithm to generate IC50 values.
# T1 sequence (P29274 whole entry): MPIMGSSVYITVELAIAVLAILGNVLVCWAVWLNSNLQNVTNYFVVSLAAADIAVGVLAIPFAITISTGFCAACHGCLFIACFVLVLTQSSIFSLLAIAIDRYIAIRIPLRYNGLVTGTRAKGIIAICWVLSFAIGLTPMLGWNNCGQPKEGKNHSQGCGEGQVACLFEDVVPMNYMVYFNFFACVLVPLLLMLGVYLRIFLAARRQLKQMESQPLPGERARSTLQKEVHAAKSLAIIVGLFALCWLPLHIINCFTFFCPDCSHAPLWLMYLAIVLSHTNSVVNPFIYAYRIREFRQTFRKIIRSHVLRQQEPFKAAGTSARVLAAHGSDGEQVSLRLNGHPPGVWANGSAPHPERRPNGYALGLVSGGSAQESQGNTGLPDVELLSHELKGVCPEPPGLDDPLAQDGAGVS
IC50 [1] [nM],IC50 [2] [nM],IC50 [3] [nM],Compound
–,–,81.7,"Nc1nc(-c2ccccc2)c(C2CC2)c2nc([C@@H]3CCCN(CC(F)(F)F)C3)nn12 [Example 5.5, (R)-8-cyclopropyl-7-phenyl-2-(1-(2,2,2-trifluoroethyl)piperidin-3-yl)-[1,2,4]triazolo[1,5-c]pyrimidin-5-amine]"
–,–,65.8,"C=C(C)c1c(-c2ccccc2)nc(N)n2nc([C@@H]3CCCN(CC(F)(F)F)C3)nc12 [Example 7.3, (R)-7-phenyl-8-(prop-1-en-2-yl)-2-(1-(2,2,2-trifluoroethyl)piperidin-3-yl)-[1,2,4]triazolo[1,5-c]pyrimidin-5-amine]"
–,–,10.9,"Nc1nc(-c2ccccc2)cc2nc([C@@H]3CCCN(CC(F)F)C3)nn12 [Example 9.2, (R)-2-(1-(2,2-difluoroethyl)piperidin-3-yl)-7-phenyl-[1,2,4]triazolo[1,5-c]pyrimidin-5-amine]"

# The remaining lines, values behind:
Compound,IC50 [1] [nM],IC50 [2] [nM],IC50 [3] [nM]
"Cc1c(-c2cccc(F)c2)nc(N)n2nc([C@@H]3CCCN(c4cnn(CC(C)(C)O)c4)C3)nc12 [Example 3.11, (R)-1-(4-(3-(5-amino-7-(3-fluorophenyl)-8-methyl-[1,2,4]triazolo[1,5-c]pyrimidin-2-yl)piperidin-1-yl)-1H-pyrazol-1-yl)-2-methylpropan-2-ol]",29.2,542,–
"Cc1c(-c2ncco2)nc(N)n2nc([C@@H]3CCCN(c4cnn(C(C)C)c4)C3)nc12 [Example 3.12, (R)-2-(1-(1-isopropyl-1H-pyrazol-4-yl)piperidin-3-yl)-8-methyl-7-(oxazol-2-yl)-[1,2,4]triazolo[1,5-c]pyrimidin-5-amine]",1.2,167,–
"Cc1cc(N2CCC[C@@H](c3nc4c(C)c(-c5ncco5)nc(N)n4n3)C2)cnc1OC(F)F [Example 3.13, (R)-2-(1-(6-(difluoromethoxy)-5-methylpyridin-3-yl)piperidin-3-yl)-8-methyl-7-(oxazol-2-yl)-[1,2,4]triazolo[1,5-c]pyrimidin-5-amine]",1.6,149,–
"Cc1cc(N2CCC[C@@H](c3nc4c(C)c(-c5ncco5)nc(N)n4n3)C2)cn(C(F)F)c1=O [Example 3.14, (R)-5-(3-(5-amino-8-methyl-7-(oxazol-2-yl)-[1,2,4]triazolo[1,5-c]pyrimidin-2-yl)piperidin-1-yl)-1-(difluoromethyl)-3-methylpyridin-2(1H)-one]",0.2,116,–
"CC(C)(O)c1c(-c2ccccc2)nc(N)n2nc([C@@H]3CCCN(CC(F)(F)F)C3)nc12 [Example 6.5, (R)-2-(5-amino-7-phenyl-2-(1-(2,2,2-trifluoroethyl)piperidin-3-yl)-[1,2,4]triazolo[1,5-c]pyrimidin-8-yl)propan-2-ol]",–,–,1030
